Reference: patent US10292388B2, “Malononitrile compounds for controlling animal pests” (BASF SE, priority 2012, dated 2019)

Key:
[1] = tested on: boll weevil (Anthonomus grandis); experiment: Boll weevil microtiter plate diet test; assay type: in vivo; settings: 120 h, sprayed onto insect diet with eggs, egg and larval mortality after 5 days, read-out: mortality in comparison with untreated controls
Procedure: B.9 Boll Weevil (Anthonomus grandis)
For evaluating control of boll weevil (Anthonomus grandis) the test unit consisted of 24-well-microtiter plates containing an insect diet and 20-30 A. grandis eggs. The compounds were formulated using a solution containing 75% v/v water and 25% v/v DMSO. Different concentrations of formulated compounds were sprayed onto the insect diet at 20 μl, using a custom built micro atomizer, at two replications. After application, microtiter plates were incubated at about 23±1° C. and about 50±5% relative humidity for 5 days. Egg and larval mortality was then visually assessed.

[2] = tested on: yellow fever mosquito (Aedes aegypti); experiment: whole plant or invertebrate; assay type: in vivo; settings: 48 h, freshly hatched larvae in tap water, larval mortality after 2 days, read-out: mortality in comparison with untreated controls
Procedure: B.12 Yellow Fever Mosquito (Aedes aegypti)
For evaluating control of yellow fever mosquito (Aedes aegypti) the test unit consisted of 96-well-microtiter plates containing 200 μl of tap water per well and 5-15 freshly hatched A. aegypti larvae. The compounds or mixtures were formulated using a solution containing 75% water and 25% DMSO. Different concentrations of formulated compounds or mixtures were sprayed onto the insect diet at 2.5 μl, using a custom built micro atomizer, at two replications. After application, microtiter plates were incubated at 28±1° C., 80±5% relative humidity for 2 days. Larval mortality was then visually assessed.

For C#Cc1ccc(CC(C#N)(C#N)c2ccc(C#N)cc2)cc1 [II-77, 2-(4-cyanophenyl)-2-[(4-ethynylphenyl)methyl]-propanedinitrile], the mortality at 2500 ppm [1] was ≥ 75% and the mortality at 2500 ppm [2] was ≥ 75%.
